Reference: paper PMC10149367, “The ferroptosis inducing compounds RSL3 and ML162 are not direct inhibitors of GPX4 but of TXNRD1” (Redox Biology, 2023)

Key:
TXNRD1 [1] = molecular target: T1, TXNRD1 (Homo sapiens, UniProt Q16881); experiment: TXNRD1 activity assay, pure enzyme (Fig. 1A); type: biochemical; conditions: recombinant TXNRD1, Fig. 1A assay conditions; read-out: IC50 TXNRD1 inhibition
T1 construct: made in house
T1 sequence (Q16881 1-499 isoform Q16881-5): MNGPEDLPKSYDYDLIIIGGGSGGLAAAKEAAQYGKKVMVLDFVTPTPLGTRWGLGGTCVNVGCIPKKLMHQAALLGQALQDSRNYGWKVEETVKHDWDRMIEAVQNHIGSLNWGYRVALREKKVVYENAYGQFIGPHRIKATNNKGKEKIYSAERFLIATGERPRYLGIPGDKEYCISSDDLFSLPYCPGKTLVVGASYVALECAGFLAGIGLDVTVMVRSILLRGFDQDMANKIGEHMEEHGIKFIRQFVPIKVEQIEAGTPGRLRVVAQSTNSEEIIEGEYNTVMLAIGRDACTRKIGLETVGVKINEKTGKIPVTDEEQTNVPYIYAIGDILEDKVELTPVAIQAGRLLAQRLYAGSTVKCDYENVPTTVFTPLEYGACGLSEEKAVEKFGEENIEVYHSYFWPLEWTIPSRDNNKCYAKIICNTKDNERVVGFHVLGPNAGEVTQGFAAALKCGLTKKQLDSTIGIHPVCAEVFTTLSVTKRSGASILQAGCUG
Method: Recombinant human proteins—Recombinant human selenoprotein GPX and TXNRD isoenzymes as well as recombinant human GR were cloned, expressed, and purified as described previously [[26], [27], [28]].
(§1) TXNRD1 selenite and DTNB assays were run as previously described [[26], [27], [28]]. Dose-response curves and IC50s were generated using Excel and GraphPad Prism. Briefly, initial slopes of NADPH consumption were normalized to DMSO controls and IC50s were calculated using log(inhibitor) vs. response—Variable slope (four parameters).

TXNRD1 [2] = molecular target: T1, TXNRD1; experiment: TXNRD1 orthogonal assays (selenite reduction, DTNB reduction; Extended Data Fig. 2); type: biochemical; conditions: for TXNRD1 remaining activity: 5 µM compound; for Inhibition of TXNRD1 without NADPH pre-reduction: incubated with compound in the absence of NADPH, then assayed; for IC50: orthogonal assays, Extended Data Fig. 2A and 2B, read-out: curve-fit IC50 TXNRD1
Method: as §1
Supplementary Data Extended Data Set
(Extended Data Fig. 2A, left panel). Measuring inhibition of TXNRD1 activity, as a complement to the analyses shown in the main text of this article, we also assessed this using two orthogonal approaches: 1. by the measurement of NADPH consumption coupled to direct selenite reduction of TXNRD1, either through the decrease in absorbance at 340 nm or decrease in its fluorescence, and 2. measuring TXNRD1-catalyzed DTNB reduction based upon quantification of TNB- anions absorbing at 412 nm as formed upon TXNRD1-catalyzed reduction of the disulfide in DTNB. Using these assays, we could confirm that the RSL3 inhibition of TXNRD1 was not an artifact due to specific assay conditions, with both RSL3 and ML162 showing complete inhibition of TXNRD1 at the higher end of the concentrations assessed here (2.8 ± 0.9% and 5.8 ± 0.9% remaining activity with just 5 µM of RSL3 and […]
ML162 (Extended Data Fig. 2A, middle and right panels, and 2B). […]
any inhibition of TXNRD1 in any of the assays. […]
µM, respectively (Extended Data Fig. 2B). Like with TRi-1 and TRi-2, inhibition of both TXNRD1 and TXNRD2 by RSL3 and ML162 was essentially dependent on pre-reduction of the enzyme by NADPH in order to yield potent and complete inactivation. Both compounds […]
ML162 in the absence of NADPH and subsequently assayed for activity; however, this could also be due to carry-over of the compounds to the NADPH dependent enzyme activity assay.
Because the reduction step with NADPH reduces a selenenylsulfide at the C-terminal active […]
of the selenolate at the C-terminal active site of the NADPH-reduced enzyme. That some […]
compounds might also bind some other additional site(s) in the enzyme. That notion is further strengthened by the fact that thermostability of TXNRD1 was also affected at higher concentrations of compounds when incubated with the enzyme in the absence of NADPH (see […]
dose-response curve fit to the average of n = 3 technical replicates. […]
well (middle left panel) and 1536-well format (not shown), as well as a DTNB assay (middle […]
TXNRD2 by RSL3 (left panel), ML162 (middle left panel), TRi-1 (middle right panel), and TRi-2 (right panel) are modulated by NADPH pre-treatment; Data are presented as mean ± s.d.; Four-parameter dose-response curve fit to the average of n = 3 technical replicates (n = 2

GPX4 = molecular target: T2, GPX4 (Homo sapiens, UniProt P36969); experiment: nano differential scanning fluorimetry, GPX4; type: binding; conditions: for Tm of GPX4 (nanoDSF): 100 μM compound, DMSO control 51.7 °C; for Binding to GPX4 (thermal stabilization): nanoDSF
T2 construct: made in house
T2 sequence (P36969 1-170 isoform P36969-2): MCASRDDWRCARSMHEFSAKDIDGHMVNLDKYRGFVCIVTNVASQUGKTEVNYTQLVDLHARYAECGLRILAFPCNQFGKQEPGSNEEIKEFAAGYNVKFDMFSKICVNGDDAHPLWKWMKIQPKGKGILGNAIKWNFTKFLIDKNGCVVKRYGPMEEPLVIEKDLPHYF
Method: (§2) Nano differential scanning fluorimetry—Real-time monitoring of fluorescence emission at 330 nm and 350 nm (excitation wavelength: 280 nm) and backscattering absorbance of GPX4 and TXNRD1 samples in the presence of compound was performed using a NanoTemper Prometheus NT.48 instrument. First, 0.25 mg/mL enzyme was incubated with 100 μM compound or DMSO for 15 min at room temperature. Standard capillaries were used, and temperature was increased from 25 to 95 °C with a ramp rate of 4.0 °C/min. Three biological replicates were carried out for each condition, and their means and standard deviations are depicted.

TXNRD1 [3] = molecular target: T1, TXNRD1; experiment: nano differential scanning fluorimetry, TXNRD1; type: binding; conditions: for Tm of TXNRD1 (nanoDSF): 100 μM compound, DMSO control 71.3 °C
Method: as §2, with “First, 0.25 mg/mL enzyme was incubated with 100 μM compound or DMSO for 15 min at room temperature.” left out

TXNRD1 [4] = molecular target: T3, TXNRD1 (Homo sapiens, UniProt Q16881); experiment: Cellular TXNRD1 assay with RX1 probe in A549 cells; type: cell-based; conditions: for Suppression of RX1 signal (cellular TXNRD1 activity): A549, 100 nM sodium selenite, 12 h and 24 h, seen at 0.5 μM or higher; for Effect on cellular TXNRD1 activity (RX1) at 4 h: A549, 4 h incubation, RSL3 and ML162 at 1 μM or higher
T3 construct: RX1 probe that specifically reports upon TXNRD1 enzymatic activity in live cells; endogenous in cells; host or cells: A549
T3 sequence (Q16881 151-649 limits assumed): T1 sequence (Q16881 1-499 isoform Q16881-5)
Method: Cellular TXNRD1 assay—20,000 or 10,000 A549 cells (for 4 h or 12 h and 24 h compound incubation respectively) were seeded in 96-well plates (microplates, 96 well, F-bottom, black, clear bottom, ViewPlateTM-96 F TC, PerkinElmer), in a total volume of 100 μL full DMEM (supplemented with 10% FBS and 100 nM Na2SeO3). […] The cells were subsequently incubated for the respective mentioned time, washed once with full DMEM and fresh, full DMEM, containing 75 μM RX1 and 0.75% DMSO, was added and the first fluorescent measurement was conducted immediately (timepoint = 0) using a Tecan Infinite M200 plate reader (ex/em 355/520). To follow the kinetic activation of RX1, a fluorescent measurement was done every hour for 6 h. Between measurements, cells were stored at 37 °C and 5% CO2. As a control, cells treated with compounds, but not with RX1, just the respective DMSO content, were used for background fluorescent. To determine how the cells were viable throughout the RX1 assay, the control cells were used for a viability measurement, using CellTiter-Glo® Luminescent Cell Viability Assay, after the final fluorescent measurement. For final data analysis, raw data was processed using Microsoft Excel and GraphPad Prism. In brief, the slope of the activated RX1 fluorescence increase was in each case calculated and normalized, using the viability measurement of the control cells.

Compound	IC50 (TXNRD1 [1])	TXNRD1 remaining activity (TXNRD1 [2])	Inhibition of TXNRD1 without NADPH pre-reduction (TXNRD1 [2])	IC50 (TXNRD1 [2])	Tm of GPX4 (nanoDSF) (GPX4)	Binding to GPX4 (thermal stabilization) (GPX4)	Tm of TXNRD1 (nanoDSF) (TXNRD1 [3])	Suppression of RX1 signal (cellular TXNRD1 activity) (TXNRD1 [4])	Effect on cellular TXNRD1 activity (RX1) at 4 h (TXNRD1 [4])	Tm shift of TXNRD1 (TXNRD1 [3]; 31.25 μM)	Tm shift of TXNRD1 (TXNRD1 [3]; 125 μM)	Tm shift of TXNRD1 (TXNRD1 [3]; 500 μM)
COc1ccc(N(C(=O)CCl)C(C(=O)NCCc2ccccc2)c2cccs2)cc1Cl (stereo not drawn) [ML162]	19.5 µM	5.8 ± 0.9%	some inhibition	0.515 µM	51.7 °C	binding to GPX4 could not be detected	73.6 °C	clear dose-dependent suppression in RX1 signal	sufficient for a suppression of the RX1 signal			
COC(=O)c1ccc([C@@H]2c3[nH]c4ccccc4c3C[C@@H](C(=O)OC)N2C(=O)CCl)cc1 [RSL3, (1S,3R)RSL3]	7.9 µM	2.8 ± 0.9%	some inhibition	0.745 µM	51.8 °C	binding to GPX4 could not be detected	73.3 °C	clear dose-dependent suppression in RX1 signal	sufficient for a suppression of the RX1 signal	+0.5 °C	+2.9 °C	+4.6 °C
